Legend:
[1] = system: HCT-15 human cancer cells; assay: Cell cycle kinetics by flow cytometry (propidium iodide); type: cell-based; design: key to Effect on cell cycle kinetics, G0/G1 / Effect on cell cycle kinetics, S / Effect on cell cycle kinetics, G2/M: n.s. means no significant; ** means highly significant; *** very highly significant
Description: (§1) Cell lines were seeded in flasks (25 cm^2 area) containing 7 ml of culture medium. After 48 hours incubation at 37° C. the cell culture medium was replaced by a fresh medium in which the substance to be tested had been dissolved at the different concentrations required. Uscharin and 2″ oxo-voruscharin were tested at concentrations, which kill 50% and 30% of the cell population, represented by the IC50 and IC30 values, respectively. After 24 or 72 hours of treatment the cells were harvested in suspension, washed in Phosphate Buffer Saline (PBS) at 4° C. and permeabilized with 70% ethanol (at 4° C.) overnight at −20° C. The cells were then washed with PBS and incubated with propidium iodide solution (80 μg/ml) for 30 minutes at 37° C. and afterward at 4° C. overnight. Ribonuclease A (3% V/V) was added to the PI solution to break doubled-stranded RNA. The portrait of the cell cycle was established for each sample. Software incorporated into the flow cytometer was used to define precisely the percentage of cells in the different cell cycle phases. Each cell cycle phase was reported in terms of peak surface and calculated as a percentage. The surface of the entire cell cycle was 100%. Each experiment was carried out 3 times. The mean percentage of each different phase and the standard error of the related mean were calculated. Each cell cycle phase of a given condition was compared with the same cell cycle phase of control. The non-treated cells constituted control.
(§2) Uscharin and 2″ oxo-voruscharin are highly toxic to human tumor cell lines. The concentrations used in the flow cytometry experiments were chosen in accordance with the MTT results (example 2). Three human cancer cell lines, Hs683, J82, and HCT-15 were tested and doses that killed 30 and 50 percent of the cells were applied to investigate whether uscharin and 2″ oxo-voruscharin promoted an accumulation in one of the cell cycle phases when the cell cultures were treated for 24 or 72 hours with increasing concentrations of the compounds. The IC50 and IC30 values for uscharin and 2″ oxo-voruscharin corresponding to the three tested cell lines are represented in Table E.

[2] = system: Hs683 human cancer cells; assay: as above; type: cell-based; design: key to Effect on cell cycle kinetics, G0/G1 / Effect on cell cycle kinetics, S / Effect on cell cycle kinetics, G2/M: n.s. means no significant; ** means highly significant; *** very highly significant
Description: as §1, §2

[3] = system: J82 human cancer cells; assay: as above; type: cell-based; design: key to Effect on cell cycle kinetics, G0/G1 / Effect on cell cycle kinetics, S / Effect on cell cycle kinetics, G2/M: n.s. means no significant; ** means highly significant; *** very highly significant
Description: as §1, §2

[4] = system: MCF-7-TD5 (breast cancer); assay: Sub-cutaneous xenograft breast cancer model; type: in vivo, mice
Description: (§3) Three types of results were obtained with in vivo anti-tumor pharmacology: 1) the cumulative toxicity of chemotherapeutic administrations through recording the weights of the tumor-bearing mice during treatment, 2) the actual anti-tumor effect exerted at tumor growth level. If the tumor models are grafted subcutaneously (s.c.), tumor size is measured three times a week by means of a caliper and expressed as an area (mm^2) by multiplying together the two largest perpendicular diameters, and 3) the gain in survival for the animals treated, which is evaluated by means of the T/C index. This index is the ratio between the median survival time of the group of treated animals (T) and that of the control group. The drug is considered to be active if the T/C value is above 130% (P<0.05), and toxic for a value lower than 70%.
(§4) The antitumoral activity of compound B was evaluated in different xenografted models: sub-cutanous model: MCF-7-TD5 (breast cancer) and C32 (melanoma cancer) and orthotopic model: A549 (lung cancer).
The MCF-7-TD5 model described herein is a […] form of MCF-7 transfected with v-Ha-ras oncogene and with a neomycin-resistance gene. Compound B was assayed at MTD/8 (10 mg/kg) and MTD/16 (5 mg/kg) five times a week.
After s.c. injection of MCF-7-TD5 into untreated female nu/nu mice, the MCF-7 TD5 produced tumors after latency periods of 7 to 18 weeks. […] No oestradiol was used during the experiments described in this example.

[5] = system: A549 (lung cancer); assay: Orthotopic lung cancer model; type: in vivo, mice; details: for T/C index: A549 orthotopic, three times a week
Description: as §3, §4
Lung cancer is the leading cause of cancer deaths worldwide. Most patients die of progressive metastatic disease despite aggressive local and systemic therapies. The pathogenesis of lung cancer remains highly elusive due to its aggressive biologic nature and considerable heterogeneity, as compared to other cancers. Orthotopic lung cancer models are described in the literature using endobronchial, intrathoracic or intravenous injection of tumor cell suspensions and by surgical implantation of fresh tumor tissue. The tumor cells are directly injected into the lung of nude mice. The advantages of orthotopic models include improved tumor take and enhanced invasive and metastatic properties.
Compound B was assayed at DMT/2 (40 mg/kg), DMT/4 (20 mg/kg) and DMT/8 (10 mg/kg) three times a week. […] These values are statistically significant.
FIG. 21 represents the death rate of nine mice in each of the control and test groups during the experiment. Kaplan-Meier statistical analysis was used. The statistics value underlines the general fit of the test control in comparison with the general fit of the control group. […] The level significance was p<0.05.

[6] = system: PC-3 orthotopic xenograft; assay: Orthotopic refractory prostate cancer model; type: in vivo, nude mice; details: from 7th day post-graft
Description: as §3
In addition to the xenografted models of Example 6, the antitumoral activity of compound B was evaluated in orthotopic xenografted models PC3 (Prostate) and Capan2 (Pancreas).
Compound B was evaluated in vivo on highly invasive orthotopic PC-3 refractory prostate cancer model by measurement of T/C index, as described in Example 6 of the specification.

SMILES: CC1CC2(NC(=O)CS2)C2(O)OC3CC4(C=O)C(CCC5C4CCC4(C)C(C6=CC(=O)OC6)CCC54O)CC3OC2O1 (stereo not shown) [2″oxo-voruscharin, 2″ oxo-voruscharin]
- Effect on cell cycle kinetics, G0/G1 ([1]; HCT-15, 24 h): n.s.
- Effect on cell cycle kinetics, G2/M ([1]; HCT-15, 24 h): n.s.
- Effect on cell cycle kinetics, S ([1]; HCT-15, 24 h): n.s.
- Effect on cell cycle kinetics, G0/G1 ([1]; HCT-15, 72 h): n.s.
- Effect on cell cycle kinetics, G2/M ([1]; HCT-15, 72 h): n.s.
- Effect on cell cycle kinetics, S ([1]; HCT-15, 72 h): ***
- cell cycle, S-phase ([1]; HCT-15, 72 hours, highest concentration tested (4.3×10^−8 M uscharin, 1.2×10^−8 M 2″oxo-voruscharin)): accumulation in S-phase
- cell cycle, G2/M phase ([2]; Hs683, 8.3×10^−9 M after 24 hours and both concentrations for 72 hours, significant): accumulation in G2/M phase
- Effect on cell cycle kinetics, G0/G1 ([2]; Hs683, 24 h): n.s.
- Effect on cell cycle kinetics, G2/M ([2]; Hs683, 24 h): ***
- Effect on cell cycle kinetics, S ([2]; Hs683, 24 h): n.s.
- Effect on cell cycle kinetics, G0/G1 ([2]; Hs683, 72 h): n.s.
- Effect on cell cycle kinetics, G2/M ([2]; Hs683, 72 h): **
- Effect on cell cycle kinetics, S ([2]; Hs683, 72 h): n.s.
- Effect on cell cycle kinetics, G0/G1 ([3]; J82, 24 h): n.s.
- Effect on cell cycle kinetics, G2/M ([3]; J82, 24 h): n.s.
- Effect on cell cycle kinetics, S ([3]; J82, 24 h): n.s.
- Effect on cell cycle kinetics, G0/G1 ([3]; J82, 72 h): n.s.
- Effect on cell cycle kinetics, G2/M ([3]; J82, 72 h): n.s.
- Effect on cell cycle kinetics, S ([3]; J82, 72 h): **
- cell cycle, S-population ([3]; J82, only after 72 hours of treatment at both concentrations tested): increase of S-population

SMILES: CC1CC2(NC(=O)CS2)C2(O)OC3CC4(CO)C(CCC5C4CCC4(C)C(C6=CC(=O)OC6)CCC54O)CC3OC2O1 (stereo not shown) [Compound B]
- survival periods of MCF-7-TD5 tumor bearing mice ([4]; 60 administrations of 10 mg/kg and 5 mg/kg): not sufficient to significantly increase the survival periods
- MCF-7-TD5 tumor growth ([4]; 60 administrations of 10 mg/kg and 5 mg/kg, five times a week): significantly decreased MCF-7-TD5 tumor growth
- weight of MCF-7-TD5 tumor bearing mice (toxic side effects) ([4]; constant administrations, 10 mg/kg and 5 mg/kg): did not lose any significant weight
- T/C index ([5]; 3×40 mg/kg): 124%
- T/C index ([5]; 7×20 mg/kg): 152%
- T/C index ([5]; 10×10 mg/kg): 186%
- weight of A549-tumor bearing mice (toxic side effects) ([5]; constant administrations, 40, 20 and 10 mg/kg): did not lose any significant weight
- weight of A549-tumor bearing mice ([5]; first week of administration at 40 mg/kg): significant loss of weight
- T/C value ([6]; i.p. DMT/4 (20 mg/kg), 5ix6w): 177%
- T/C value ([6]; per os DMT/2 (40 mg/kg), 5dx6w): 132%

Reference: patent US7981875B2, “2″ oxo-voruscharin and derivatives thereof” (priority 2002, dated 2011)
